# In patent publication US8940897B2, “1,3,4-oxadiazole and 1,3,4-thiadiazole β-lactamase inhibitors” (priority 2012, dated 2015):
# Counter-ions that a name gives are not always drawn.
# Columns and labels:
# [1] = test system: bacterial strains that express the class D cephalosporinase OXA-15; test: Synergy MIC / standard BLI potentiation MIC assay, strains expressing OXA-15;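 note: more active means a lower MIC or sMIC than Avibactam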; type: cell-based, E. coli; conditions: in the presence of a β-lactam; comparator Avibactam (CCC)
# How it was run: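 CLSI broth microdilution in CAMHB, ~10^5 CFU/mL, 18–20 h at 37 °C with aeration; engineered E. coli kept on 25 μg/mL tetracycline. Potentiation: β-lactam 128–0.13 μg/mL with BLI fixed at 4 μg/mL; synergy MIC: BLI serially diluted with fixed β-lactam. MIC is the lowest concentration without visible turbidity.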
# [2] = test system: bacterial strains that express KPC β-lactamases; test: Synergy MIC / standard BLI potentiation MIC assay, strains expressing KPC β-lactamases; type: cell-based; conditions: for at least one KPC strain and/or a better spectrum of activity against KPC strains than Avibactam; in the presence of a β-lactam
# Method: Unless otherwise indicated, the activity of the BLI compounds can be described by the MIC value obtained from a Synergy MIC assay or a BLI potentiation assay (e.g as described herein), both of which are run in the presence of a β-lactam.
# The experimental protocol was performed according to Clinical and Laboratory Standards Institute (CLSI) guidelines with modifications as described below (CLSI guidelines can be derived from the CLSI document M07-A9 published in January 2012: “Methods for Dilution Antimicrobial Susceptibility Tests for Bacteria That Grow Aerobically; Approved Standard-Ninth Edition”).
# To prepare for MIC testing, frozen glycerol stocks of clinical isolates (Klebsiella pneumoniae, Eschericia coli, Enterobacter spp, Citrobacter spp, or Pseudomonas aeruginosa) were used to streak for isolated colonies on rich, non-selective, tryptic soy agar containing 5% sheep's blood (TSAB). Frozen glycerol stocks of laboratory engineered, isogenic E. coli strains, which contain cloned β-lactamase expressing plasmids were used to streak for isolated colonies on rich, selective LB agar supplemented with 25 μg/mL tetracycline to maintain the plasmid. All strains were incubated at 37° C. for 18-24 hrs.
# On the day of testing, primary cultures were started by scraping off 5-10 colonies from the TSAB plates containing clinical strains or the tetracycline supplemented LB plates containing engineered strains. The clinical strain material was suspended in ˜5 mL of cation adjusted Mueller Hinton Broth (CAMHB) in 14 mL culture tubes. The engineered strain material was suspended in CAMHB (supplemented with 25 μg/mL tetracycline) in 14 mL culture tubes. All strains were incubated at 37° C. with aeration (200 rpm) for ˜2 hrs until the optical density at 600 nm (OD600) was ≧0.1.
# The two compound components of the assay were each diluted in CAMHB and added to the 96-well broth microdilution assay plates. 50 μL of the β-lactam was added to each well of the assay plate in 2-fold dilutions with final concentrations ranging from 128 to 0.13 μg/mL. 25 μL of the BLI compound was added to all wells in the broth microdilution plates at a final concentration of 4 μg/mL. Inoculum cultures were prepared by standardizing the primary cultures to OD600=0.1 and then adding 20 μL of the adjusted primary culture per 1 mL CAMHB for clinical strains or CAMHB (supplemented with tetracycline at 100 μg/mL) for engineered strains, so that the final inoculum density was ˜10^5 colony forming units per milliliter. Diluted inoculum cultures were used to inoculate 25 μl, per well in 96-well broth microdilution assay plates. The final volume of each well was 100 μL and contained a β-lactam at different concentrations, a BLIcompound at 4 μg/mL concentration, the bacterial culture at an OD600 of approximately 0.001 and when necessary tetracycline at 25 μg/mL.
# Plates were incubated for 18-20 hours at 37° C. with aeration (200 rpm). Following incubation, growth was confirmed visually placing plates over a viewing apparatus (stand with a mirror underneath) and then OD600 was measured using a SpectraMax 340PC384 plate reader (Molecular Devices, Sunnyvale, Calif.). Growth was defined as turbidity that could be detected with the naked eye or achieving minimum OD600 of 0.1. MIC values were defined as the lowest concentration producing no visible turbidity.
# The synergy MIC (sMIC) assay determines the concentration of the BLI required to potentiate the activity of a fixed concentration of a β-lactam antibiotic against β-lactamase producing bacterial strains. The experimental protocol was performed according to Clinical and Laboratory Standards Institute (CLSI) guidelines with modifications as described below (CLSI guidelines can be derived from the CLSI document M07-A9 published in January 2012: “Methods for Dilution Antimicrobial Susceptibility Tests for Bacteria That Grow Aerobically; Approved Standard-Ninth Edition”). […]
smiles,measurement,setting,value
"N[C@@H]1CN[C@H](c2nnc([C@@H]3CC[C@@H]4CN3C(=O)N4OS(=O)(=O)O)o2)C1 [Compound 760, (2S,5R)-2-(5-((2S,4S)-4-aminopyrrolidin-2-yl)-1,3,4-oxadiazol-2-yl)-7-oxo-1,6-diazabicyclo[3.2.1]octan-6-yl hydrogen sulfate]",activity against bacterial strains that express OXA-15 β-lactamase compared with Avibactam,[1],more active than Avibactam
same,activity against bacterial strains that express KPC β-lactamase compared with Avibactam,[2],more active than Avibactam
"NC1CCN(Cc2nnc([C@@H]3CC[C@@H]4CN3C(=O)N4OS(=O)(=O)O)o2)CC1 [Compound 774, (2S,5R)-2-(5-((4-aminopiperidin-1-yl)methyl)-1,3,4-oxadiazol-2-yl)-7-oxo-1,6-diazabicyclo[3.2.1]octan-6-yl hydrogen sulfate]",activity against bacterial strains that express OXA-15 β-lactamase compared with Avibactam,[1],more active than Avibactam
same,activity against bacterial strains that express KPC β-lactamase compared with Avibactam,[2],more active than Avibactam
"NC(=O)c1nnc([C@@H]2CC[C@@H]3CN2C(=O)N3OS(=O)(=O)O)o1 [Compound 706, (2S,5R)-2-(5-carbamoyl-1,3,4-oxadiazol-2-yl)-7-oxo-1,6-diaza-bicyclo[3.2.1]octan-6-yl hydrogen sulfate]",activity against bacterial strains that express OXA-15 β-lactamase compared with Avibactam,[1],more active than Avibactam
same,activity against bacterial strains that express KPC β-lactamase compared with Avibactam,[2],more active than Avibactam
"O=C1N2C[C@@H](CC[C@H]2c2nnc(CCCNC3CCNCC3)o2)N1OS(=O)(=O)O [Compound 771, (2S,5R)-7-oxo-2-(5-(3-(piperidin-4-ylamino)propyl)-1,3,4-oxadiazol-2-yl)-1,6-diazabicyclo[3.2.1]octan-6-yl hydrogen sulfate]",activity against bacterial strains that express OXA-15 β-lactamase compared with Avibactam,[1],more active than Avibactam
same,activity against bacterial strains that express KPC β-lactamase compared with Avibactam,[2],more active than Avibactam
"CC(C)(N)Cc1nnc([C@@H]2CC[C@@H]3CN2C(=O)N3OS(=O)(=O)O)o1 [Compound 737, (2S,5R)-2-(5-(2-amino-2-methylpropyl)-1,3,4-oxadiazol-2-yl)-7-oxo-1,6-diazabicyclo[3.2.1]octan-6-yl hydrogen sulfate]",activity against bacterial strains that express OXA-15 β-lactamase compared with Avibactam,[1],more active than Avibactam
same,activity against bacterial strains that express KPC β-lactamase compared with Avibactam,[2],more active than Avibactam
"O=C1N2C[C@@H](CC[C@H]2c2nnc([C@H]3CNCCN3)o2)N1OS(=O)(=O)O [Compound 779, (2S,5R)-7-oxo-2-(5-((R)-piperazin-2-yl)-1,3,4-oxadiazol-2-yl)-1,6-diazabicyclo[3.2.1]octan-6-yl hydrogen sulfate]",activity against bacterial strains that express OXA-15 β-lactamase compared with Avibactam,[1],more active than Avibactam
same,activity against bacterial strains that express KPC β-lactamase compared with Avibactam,[2],more active than Avibactam
"N=C(N)N1CC(Cc2nnc([C@@H]3CC[C@@H]4CN3C(=O)N4OS(=O)(=O)O)o2)C1 [Compound 741, (2S,5R)-2-(5-((1-carbamimidoylazetidin-3-yl)methyl)-1,3,4-oxadiazol-2-yl)-7-oxo-1,6-diazabicyclo[3.2.1]octan-6-yl hydrogen sulfate]",activity against bacterial strains that express OXA-15 β-lactamase compared with Avibactam,[1],more active than Avibactam
same,activity against bacterial strains that express KPC β-lactamase compared with Avibactam,[2],more active than Avibactam
"O=C1N2C[C@@H](CC[C@H]2c2nnc(CCNCCO)o2)N1OS(=O)(=O)O [Compound 736, (2S,5R)-2-(5-(2-((2-hydroxyethyl)amino)ethyl)-1,3,4-oxadiazol-2-yl)-7-oxo-1,6-diazabicyclo[3.2.1]octan-6-yl hydrogen sulfate]",activity against bacterial strains that express OXA-15 β-lactamase compared with Avibactam,[1],more active than Avibactam
same,activity against bacterial strains that express KPC β-lactamase compared with Avibactam,[2],more active than Avibactam
"N=C(N)NC[C@@H](O)c1nnc([C@@H]2CC[C@@H]3CN2C(=O)N3OS(=O)(=O)O)o1 [Compound 731, (2S,5R)-2-(5-((R)-2-guanidino-1-hydroxyethyl)-1,3,4-oxadiazol-2-yl)-7-oxo-1,6-diazabicyclo[3.2.1]octan-6-yl hydrogen sulfate]",activity against bacterial strains that express OXA-15 β-lactamase compared with Avibactam,[1],more active than Avibactam
same,activity against bacterial strains that express KPC β-lactamase compared with Avibactam,[2],more active than Avibactam
"N=C(N)NCC1(c2nnc([C@@H]3CC[C@@H]4CN3C(=O)N4OS(=O)(=O)O)o2)CC1 [Compound 723, (2S,5R)-2-(5-(1-(guanidinomethyl)cyclopropyl)-1,3,4-oxadiazol-2-yl)-7-oxo-1,6-diazabicyclo[3.2.1]octan-6-yl hydrogen sulfate]",activity against bacterial strains that express OXA-15 β-lactamase compared with Avibactam,[1],more active than Avibactam
same,activity against bacterial strains that express KPC β-lactamase compared with Avibactam,[2],more active than Avibactam
"N=C(N)NCCc1nnc([C@@H]2CC[C@@H]3CN2C(=O)N3OS(=O)(=O)O)s1 [Compound 794, (2S,5R)-2-(5-(2-guanidinoethyl)-1,3,4-thiadiazol-2-yl)-7-oxo-1,6-diazabicyclo[3.2.1]octan-6-yl hydrogen sulfate]",activity against bacterial strains that express OXA-15 β-lactamase compared with Avibactam,[1],more active than Avibactam
same,activity against bacterial strains that express KPC β-lactamase compared with Avibactam,[2],more active than Avibactam
"N[C@H]1C[C@@H](c2nnc([C@@H]3CC[C@@H]4CN3C(=O)N4OS(=O)(=O)O)s2)C1 [Compound 795, (2S,5R)-2-(5-((1s,3R)-3-aminocyclobutyl)-1,3,4-thiadiazol-2-yl)-7-oxo-1,6-diazabicyclo[3.2.1]octan-6-yl hydrogen sulfate]",activity against bacterial strains that express OXA-15 β-lactamase compared with Avibactam,[1],more active than Avibactam
same,activity against bacterial strains that express KPC β-lactamase compared with Avibactam,[2],more active than Avibactam
"N=C(N)N[C@H]1C[C@@H](c2nnc([C@@H]3CC[C@@H]4CN3C(=O)N4OS(=O)(=O)O)o2)C1 [Compound 749, (2S,5R)-2-(5-((1s,3R)-3-guanidinocyclobutyl)-1,3,4-oxadiazol-2-yl)-7-oxo-1,6-diazabicyclo[3.2.1]octan-6-yl hydrogen sulfate]",activity against bacterial strains that express OXA-15 β-lactamase compared with Avibactam,[1],more active than Avibactam
same,activity against bacterial strains that express KPC β-lactamase compared with Avibactam,[2],more active than Avibactam
"O=C1N2C[C@@H](CC[C@H]2c2nnc(C3CNC3)o2)N1OS(=O)(=O)O [Compound 708, (2S,5R)-2-(5-(azetidin-3-yl)-1,3,4-oxadiazol-2-yl)-7-oxo-1,6-diazabicyclo[3.2.1]octan-6-yl hydrogen sulfate]",activity against bacterial strains that express OXA-15 β-lactamase compared with Avibactam,[1],more active than Avibactam
same,activity against bacterial strains that express KPC β-lactamase compared with Avibactam,[2],more active than Avibactam
"N[C@H]1C[C@@H](Cc2nnc([C@@H]3CC[C@@H]4CN3C(=O)N4OS(=O)(=O)O)o2)C1 [Compound 728, (2S,5R)-2-(5-(((1s,3R)-3-aminocyclobutyl)methyl)-1,3,4-oxadiazol-2-yl)-7-oxo-1,6-diazabicyclo[3.2.1]octan-6-yl hydrogen sulfate]",activity against bacterial strains that express OXA-15 β-lactamase compared with Avibactam,[1],more active than Avibactam
same,activity against bacterial strains that express KPC β-lactamase compared with Avibactam,[2],more active than Avibactam
"N[C@H]1C[C@H](c2nnc([C@@H]3CC[C@@H]4CN3C(=O)N4OS(=O)(=O)O)s2)C1 [Compound 783, (2S,5R)-2-(5-((1r,3S)-3-aminocyclobutyl)-1,3,4-thiadiazol-2-yl)-7-oxo-1,6-diazabicyclo[3.2.1]octan-6-yl hydrogen sulfate]",activity against bacterial strains that express OXA-15 β-lactamase compared with Avibactam,[1],more active than Avibactam
same,activity against bacterial strains that express KPC β-lactamase compared with Avibactam,[2],more active than Avibactam
